Earlier results in patent US20250345482A1, “3D PRINTED GALLIUM SCAFFOLD” (Northeast Ohio Medical University, priority 2024, published 2025).

Legend:
[1] = test system: osteoclast differentiation and function; details: inventors' earlier publication (Ghanta P. et al. 2023)
NFAT2, TRAP, and c-Fos = details: literature (Verron E et al. 2012)

| SMILES | Osteoclast differentiation and function [1] | Effect on transcription factors responsible for osteoclast differentiation (NFAT2, TRAP, and c-Fos) |
| --- | --- | --- |
| CC(=O)/C=C(/C)[O][Ga]([O]/C(C)=C\C(C)=O)[O]/C(C)=C\C(C)=O [GaAcAc, gallium acetylacetonate] | effectively inhibited |  |
| O=[N+]([O-])[O-].O=[N+]([O-])[O-].O=[N+]([O-])[O-].[Ga+3] [gallium nitrate] |  | dose-dependent downregulation |
